Experimental data: patent US20260373164A1, “4(RS)-4-F4-NEUROPROSTANE DERIVATIVES (4-F4T-NEUROP) AND THEIR USE IN TREATING VENTILATOR INDUCED DIAPHRAGMATIC DYSFUNCTION AND OTHER DISEASES” (INSTITUT NATIONAL DE LA SANTÉ ET DE LA RECHERCHE MÉDICALE, priority 2022, published 2026)
Entries after “also recorded” stand apart in the source; their conditions may differ.

Columns and labels:
piglet diaphragm (VIDD) = experiment: Trans-diaphragmatic pressure (Pdi)-frequency relationship after 72 hours of mechanical ventilation in piglets; assay type: in vivo; settings: for prevention of VIDD in porcine model: general statement, piglets
Method: As previously described^18,25, twelve piglets (15-20 kg) were separated in two groups of six animals/each. In both groups, oxygenation was maintained with a fraction of inspired oxygen (FIO2) ranging from 25 to 35%, tidal volume between 10 and 12 ml·kg^−1 body weight and breathing frequency from 15 to 30 cycles/min to maintain normocapnia. In the first group (MV group), piglets were mechanically ventilated using CMV, with a positive end-expiratory pressure level at 5 cm H2O. The absence of spontaneous breathing was verified on the ventilator trend graphs, and the diaphragm electromyographic activity was measured to ensure the absence of diaphragm electrical activity. In the second group (control group), piglets were ventilated using ASV, with settings in phase with the piglet body weight (inspiratory flow trigger at 0.3 L·min^−1, percentage of mechanical ventilation between 100 and 150%, positive end-expiratory pressure level at 5 cm H2O, and expiratory trigger at 25% of the peak inspiratory flow). The diaphragm electromyographic activity was assessed to verify that piglets could breathe spontaneously. Both groups received the same care, except for the MV mode.
Briefly, piglets were anesthetized by intravenous injection of 5-6 mg kg^−1 pentobarbital sodium, intubated with a cuffed endotracheal tube and mechanically ventilated (Galileo®; Hamilton Medical AG, Rhazuns, Switzerland). Anesthesia was maintained with continuous intravenous infusion of 15-20 mg·kg^−1 propofol, 0.1-0.3 mg·kg^−1 midazolam and 3-4 mg·kg^−1·h^−1 ketamine. The level of sedation was monitored by using a bispectral index system (BIS®; Aspect, Norwood, MA). Heating pads were employed, as needed, to maintain the normal body temperature of 38.5-39.5 °C. […]
Arterial carbon dioxide pressure was monitored using a capnograph (Deltatrac®; Datex-Ohmeda, Helsinki, Fin-land) and verified by arterial blood gas analysis (iSTAT®; Abbott, Abbott Park, IL). […]
The diaphragm contractile function was assessed in vivo by measuring the transdiaphragmatic pressure (Pdi)^18. […]

calstabin1/RyR1 complex = experiment: RyR1 biochemical analysis (immunoprecipitation): oxidation, phosphorylation, calstabin1 interaction; assay type: in vivo, mouse; settings: for RyR function: associated with VIDD prevention in the murine and porcine models; for RyR oxidation, and phosphorylation: statement in discussion for both compounds
Method: Muscle biopsies were homogenized in 150 μl of buffer containing 5% SDS, 5% beta-mercaptoethanol, 10% glycerol, 10 mM EDTA and 50 mM Tris/HCl buffer (pH=8.0). Each sample was immediately denatured at 90 °C for 4 min. After centrifugation (5000 rpm) at 4 °C, supernatant protein concentrations were measured in duplicate using the BCA protein assay, equilibrated at the same concentration by dilution with loading buffer and aliquoted at 2 μg/μl. RyR1 was immunoprecipitated from 250 μg of homogenate using an anti-RyR antibody (4 μg RyR1-1327) in 0.5 ml of a modified RIPA buffer (50 mM Tris-HCl pH 7.4, 0.9% NaCl, 5.0 mM NaF, 1.0 mM Na3VO4, 1% Triton-X100, and protease inhibitors) for 1 hr at 4 °C. The immune complexes were incubated with protein A Sepharose beads (Amersham Pharmacia) at 4 °C for 1 hr and the beads were washed three times with buffer. Proteins were separated on SDS-PAGE gels (4-20% gradient) and transferred onto nitrocellulose membranes for 2 hr at 200 mA (SemiDry transfer blot, Bio-Rad). To prevent non-specific antibody binding, the membranes were incubated with blocking solution (LICOR Biosciences) and washed with Tris-buffered saline with 0.1% Tween-20.
Blots were respectively incubated with primary antibody to RyR1 (RyR1-1327, an affinity-purified rabbit polyclonal antibody raised against a KLH-conjugated peptide with the amino acid sequence CAEPDTDYENLRRS, corresponding to residues 1327-1339 of mouse skeletal RyR1, with an additional cysteine residue added to the amino terminus), and affinity purified with the unconjugated peptide. The inventors also used antibody to calstabin1 (1:2500 in blocking buffer, LICOR Biosciences); phospho-epitope-specific antibody to human RyR2 phosphorylated on Ser-2808 (1:5,000), which detects PKA-phosphorylated mouse RyR1 (on Ser-2844) and RyR2 (on Ser-2808); antibody to S-nitrosylated cysteine residues (1:1000, Sigma). To determine RyR1 oxidation, the immunoprecipitate was treated with 2, 4-dinitrophenyl hydrazine, and the derivatized carbonyls were detected using an OxyBlot protein oxidation detection Kit (catalog S7150, Chemicon International Inc.). After three washes, membranes were incubated with infrared-labeled secondary antibodies. Control samples were analyzed on each gel for normalization and total levels of RyR1 were not different between groups.
Diaphragm samples from the above experiments were frozen and solubilized to further investigate the biochemical properties of the RyR1 macromolecular complex.

Q: Which results are given for `CC/C=C\C/C=C\C/C=C\C[C@@H]1[C@H](/C=C/C(O)CCC(=O)O)[C@@H](O)C[C@H]1O` (mixture of isomers) [Compound 4F4t-NeuroP, 4(RS)-4-F4t-Neuroprostane]?
A: prevention of VIDD in porcine model (piglet diaphragm (VIDD)): prevent with a high efficiency VIDD; RyR function (calstabin1/RyR1 complex): normalization of RyR function; biochemical signature of leaky RyR1 (oxidation, ser2844 phosphorylation, calstabin1 depletion) (calstabin1/RyR1 complex; mouse diaphragm after 6 h MV, 4F4t-NeuroP IV): this post-translational remodeling was prevented; also recorded: fully prevented; calstabin1/RyR1 complex (calstabin1/RyR1 complex; mouse diaphragm after 6 h MV, calstabin1/RyR1 interaction): Stabilizes the Complex Calstabin1/RyR1; RyR oxidation, and phosphorylation (calstabin1/RyR1 complex): prevent RyR oxidation, and phosphorylation

Q: With `CC/C=C\C[C@@H]1[C@H](/C=C/C(O)CCC(=O)O)[C@@H](O)C[C@H]1O` (mixture of isomers) [VB558, (E)-6-((1S,2R,3R,5S)-3,5-dihydroxy-2-((Z)-pent-2-en-1-yl)cyclopentyl)-4-hydroxyhex-5-enoic Acid] as the compound, how does the “reduction of trans-diaphragmatic pressure (Pdi) / VIDD in piglets” value (piglet diaphragm (VIDD); IV bolus 0.250 mg·kg^−1 then 0.025 mg·kg^−1 every 12 hours, 72 h MV) read?
A: Its value is “prevents VIDD in piglets after 72 hours of ventilation; also recorded: fully prevented”.

Q: What about the “prevention of VIDD in porcine model” value (piglet diaphragm (VIDD)) of the same compound?
A: Its value is “prevent with a high efficiency VIDD”.

Q: What about the RyR function (calstabin1/RyR1 complex) of the same compound?
A: The RyR function was “normalization of RyR function”.

Q: What about the “RyR oxidation, and phosphorylation” value (calstabin1/RyR1 complex) of the same compound?
A: The value was “prevent RyR oxidation, and phosphorylation”.
